{
  "source": "patent US20150051191A1",
  "about": "“TREATMENT OF ALCOHOLISM USING IBUDILAST” (MEDICINOVA, INC., priority 2013, published 2015)",
  "key": {"[1]": {"conditions": "in vivo; cited from earlier work"}, "C57BL/6J mice": {"system": "C57BL/6J mice", "assay": "mouse model of ethanol dependence, chronic intermittent ethanol (CIE) exposure", "format": "in vivo", "conditions": "for ethanol intake of alcohol dependent mice compared with control group counterparts / reduction of ethanol intake, alcohol dependent versus control mice: Test Cycle 9; for ethanol consumption relative to vehicle: Test Cycle 8", "protocol": "Briefly, mice were divided into test (ethanol dependent) and control (non-ethanol dependent) groups. Mice in the former group were exposed to chronic intermittent ethanol (CIE) vapor (16 hr/day×4 days), and then forced to abstain from alcohol for 72 hours. Mice were then permitted access to ethanol for 2 h/day for a 5-day test period. This pattern of weekly CIE exposures followed by 5-day test periods was repeated for 9 cycles. Mice in the control group were treated in the same manner, except these animals were exposed to air rather than ethanol vapors. Mice from both groups were further divided into four sub-groups with animals receiving 0 mg/Kg, 3 mg/Kg, 6 mg/Kg or 12 mg/Kg dose of ibudilast. In a separate study, adult male C57BL/6J mice were used to evaluate ibudilast as a therapeutic for the treatment of alcohol dependence. Two groups of mice were used for the study. Mice in the first group were trained to drink ethanol using a 2 h/day free-choice (15% v/v ethanol) drinking procedure (ethanol dependent (EtOH) mice), while mice in the second group were provided water and served a control (ethanol nondependent (CTL)) mice. Both the ethanol dependent and ethanol non-dependent groups had equal number of mice (N=37-38/group). Mice in the alcohol dependent group were then exposed to chronic intermittent ethanol (CIE) vapors for 16 hr/day over four days. After a 72 hours forced abstinence period, the ethanol dependent mice were again permitted access to ethanol for 2 hours each day over a 5 consecutive test days. This pattern of chronic intermittent ethanol vapor exposure for four consecutive days followed by forced abstinence and a five day ethanol access test period was repeated for 9 cycles. […] Both control and ethanol dependent mice received subcutaneous (s.c.) injections of the vehicle at 9 hours and 1 hour prior to the start of daily drinking sessions during Test Cycles 4, 5 and 6 to acclimate the animals to handling and administration of injections. At the end of test cycle 6, mice in the ethanol dependent group and the control group were separated into four sub-groups with animals receiving one of four doses of ibudilast—0 mg/Kg, 3 mg/Kg, 6 mg/Kg or 12 mg/Kg during Test Cycles 7 and 8. Each sub-group contained 9-10 mice (N=9-10/group). The dose of ibudilast was increased during Test Cycle 9 with ethanol dependent and control mice receiving one of the following four doses of ibudilast—0 mg/Kg, 6 mg/Kg, 12 mg/Kg, or 18 mg/Kg. Thus, mice previously receiving a dose of 3 mg were administered ibudilast at a dose of 18 mg/Kg during Test Cycle 9."}, "[2]": {"system": "alcohol-preferring (P) rats", "assay": "voluntary ethanol consumption in alcohol-preferring (P) rats", "format": "in vivo, rat", "conditions": "for ethanol drinking relative to controls: Relapse Test phase, p<0.05", "protocol": "(§1) The ability of ibudilast (MN-166) to decrease voluntary ethanol consumption, under blind testing conditions, in selectively-bred alcohol-preferring (P) and high-alcohol-drinking (HAD1) rats and in a mouse model of ethanol dependence was examined.\n(§2) To perform the study, adult male P and HAD1 rats were randomly assigned to receive one of the following four doses of ibudilast—0 mg/Kg, 3 mg/Kg, 6 mg/Kg, or 9 mg/Kg with eight rats assigned to each dose. Each dosing group was balanced to average a 2 h/day ethanol (15% v/v) intake. Water was concurrently available to the rats and Mazola corn oil was used as the vehicle.\n(§3) The study was divided into four test phases. In the maintenance test phase rats in the treatment group were injected ibudilast subcutaneously (2 mL/kg s.c.), using standard solutions that deliver 3 mg/Kg, 6 mg/Kg or 9 mg/Kg of ibudilast, 60 min before each ethanol test session and the same dose of ibudilast was administered subcutaneously to the rats 8 hours later. Rats in the control group, however, are administered 2 mL/Kg Mazola corn oil subcutaneously. This protocol was carried out for 4 consecutive days. Following the maintenance test phase, is a two week no drug recovery phase during which rats are permitted access to ethanol and the amount of ethanol consumed by the rats was measured.\n(§4) The recovery phase is followed by a two week forced ethanol abstinence phase. Following forced abstinence, the effects of ibudilast on ethanol drinking were examined by re-introducing ethanol to rats for a period of 5 consecutive days (i.e., the Relapse Test phase). Each animal received the same dose of ibudilast during maintenance and relapse test phases."}, "[3]": {"system": "high-alcohol-drinking (HAD1) rats", "assay": "voluntary ethanol consumption in high-alcohol-drinking (HAD1) rats", "format": "in vivo, rat", "protocol": "as §1, §2, §3, §4"}, "[4]": {"conditions": "4-day maintenance test-phase, each dose (3, 6, 9 mg/Kg), p<=0.001"}, "[5]": {"conditions": "5-day Relapse Test phase after two week forced abstinence"}, "[6]": {"conditions": "especially at the 9 mg/Kg dose, effect diminished over the 5-day test phase"}, "[7]": {"conditions": "maintenance test phase, 4 days, ibudilast s.c. 60 min before session and 8 hours later, 2 h/day ethanol 15% v/v"}, "[8]": {"conditions": "relapse test phase, data not shown"}},
  "data": [
    {"smiles": "OCCOCCN1CCN(C2=Nc3ccccc3Sc3ccccc32)CC1", "note": "[quetiapine]", "values": [
      {"measurement": "selective reduction of ethanol drinking", "setting": "[1]", "value": "do not selectively reduce ethanol drinking"}
    ]},
    {"smiles": "CC[C@@H](C(N)=O)N1CCCC1=O", "note": "[levatiracetam]", "values": [
      {"measurement": "selective reduction of ethanol drinking", "setting": "[1]", "value": "do not selectively reduce ethanol drinking"}
    ]},
    {"smiles": "CC(C)C(=O)c1c(C(C)C)nn2ccccc12", "note": "[ibudilast, Ibudilast]", "values": [
      {"measurement": "ethanol intake of alcohol dependent mice compared with control group counterparts", "setting": "C57BL/6J mice; 6 mg ibudilast, p<0.05", "value": "consumed significantly more ethanol"},
      {"measurement": "ethanol intake of alcohol dependent mice compared with control group counterparts", "setting": "C57BL/6J mice; 12 mg/Kg", "value": "no significant difference in ethanol intake"},
      {"measurement": "reduction of ethanol intake, alcohol dependent versus control mice", "setting": "C57BL/6J mice; 12 mg/Kg", "value": "more effective at reducing ethanol intake in alcohol dependent mice than control mice"},
      {"measurement": "ethanol intake of alcohol dependent mice compared with control group counterparts", "setting": "C57BL/6J mice; 18 mg/Kg", "value": "no significant difference in ethanol intake"},
      {"measurement": "reduction of ethanol intake, alcohol dependent versus control mice", "setting": "C57BL/6J mice; 18 mg/Kg", "value": "more effective at reducing ethanol intake in alcohol dependent mice than control mice"},
      {"measurement": "ethanol intake", "setting": "C57BL/6J mice; alcohol dependent mice, 12 mg/Kg s.c., Test Cycle 7 (implied, FIG. 2)", "value": "reduced ethanol in alcohol dependent mice"},
      {"measurement": "ethanol consumption relative to vehicle", "setting": "C57BL/6J mice; alcohol dependent mice, 12 mg/Kg, p<0.05", "value": "reduced ethanol consumption to a greater extent"},
      {"measurement": "ethanol intake of test (ethanol dependent) mice relative to control group levels", "setting": "C57BL/6J mice; at the higher doses", "value": "below those for mice in the control group"},
      {"measurement": "ethanol consumption relative to vehicle", "setting": "C57BL/6J mice; control (CTL) mice, 12 mg/Kg, p<0.05", "value": "reduced ethanol consumption to a greater extent"},
      {"measurement": "ethanol intake relative to vehicle-injected controls", "setting": "[2]; [4]", "value": "reduced ethanol intake"},
      {"measurement": "reduction of ethanol intake", "setting": "[2]; [5]", "value": "about 50%"},
      {"measurement": "ethanol drinking relative to controls", "setting": "[2]; 6 mg/Kg", "value": "significantly reducing ethanol drinking"},
      {"measurement": "ethanol drinking relative to controls", "setting": "[2]; 9 mg/Kg", "value": "significantly reducing ethanol drinking"},
      {"measurement": "24-hour water intake", "setting": "[2]; especially at the 9 mg/Kg dose", "value": "not water intake"},
      {"measurement": "24-hour food intake", "setting": "[2]; [6]", "value": "transitory reductions in 24-hour food intake"},
      {"measurement": "reduction of ethanol intake", "setting": "[2]; [7]", "value": "approximately 50%"},
      {"measurement": "Dose x Day interaction of reduced ethanol intake", "setting": "[2]; [8]", "value": "most robust on the first day"},
      {"measurement": "ethanol intake relative to vehicle-injected controls", "setting": "[3]; [4]", "value": "reduced ethanol intake"},
      {"measurement": "reduction of ethanol intake", "setting": "[3]; [5]", "value": "about 50%"},
      {"measurement": "ethanol intake compared to controls", "setting": "[3]; Relapse Test phase, each test dose, p<0.05", "value": "reduce ethanol intake compared to controls"},
      {"measurement": "24-hour water intake", "setting": "[3]; especially at the 9 mg/Kg dose", "value": "not water intake"},
      {"measurement": "24-hour food intake", "setting": "[3]; [6]", "value": "transitory reductions in 24-hour food intake"},
      {"measurement": "reduction of ethanol intake", "setting": "[3]; [7]", "value": "approximately 50%"},
      {"measurement": "Dose x Day interaction of reduced ethanol intake", "setting": "[3]; [8]", "value": "most robust on the first day"}
    ]}
  ]
}
